According to US20030105048A1, “Oligobenzimidazole derivatives and their use as DNA transfecting agents” (priority 1999, published 2003):

What was measured:
[1] = system: mouse muscles; assay: In vivo intramuscular transfection of plasmid pXL3031 (luciferase expression) with or without electrotransfer; parameters: species or system C57B16 mice; settings: 4 μg of DNA/muscle, 7 days
Experimental: The plasmid used is the same as the one described above for Example 5 (pXL3031). Similarly, the cytofecting solutions are prepared in the same way as in Example 5.
25 μl of solutions of derivative (1)/DNA complexes are injected intramuscularly to C57B16 mice, at a rate of 4 μg of DNA/mouse muscle.
The transfection efficacy is evaluated 7 days 5 after transfection by measuring the expression of luciferase according to the recommendations given for using the Promega kit (Luciferase Assay System). The muscles are ground in 1.5 ml of lysis buffer (with protease inhibitors). After assaying the luciferase activity on 10 μl, the results are expressed as RLU/10 μl/10 sec.
The in vivo luciferase activity results in mouse muscles, expressed in RLU/10 μl/10 sec, are collated in the table below: […]

[2] = system: DNA plasmid; assay: Agarose gel electrophoresis of DNA plasmid complexed with derivative or cationic lipid; format: binding; settings: increasing amounts per μg of DNA; revealed with ethidium bromide
Experimental: For this, an agarose gel of a DNA plasmid mixed with increasing amounts of derivative (1) or (2) according to the invention was prepared (see FIG. 4). […] Two bands could thus be observed by virtue of the specific spectral absorption properties of the derivatives according to the present invention:
It is observed that the DNA migrates in an identical manner to the naked DNA, irrespective of the concentration of derivative 20 according to the invention.

[3] = system: HeLa cells; assay: In vitro transfection of plasmid pXL3031 (luciferase expression) in the presence and absence of serum; format: cell-based; settings: 48 hours after transfection
Experimental: The plasmid used The DNA used is the plasmid pXL3031 (see FIG. 7) as a solution in a mixture of 5% dextrose and 10 mM sodium chloride at a concentration of 0.5 mg/ml or 1.0 mg/ml. This plasmid contains the luc gene encoding luciferase under the control of the cytomegalovirus P/E CMV promoter. Its size is 3671 bp. The plasmid pXL3031 was purified according to the methods described in patent application WO 97/35002.
The nucleic acid solutions are diluted to 20 μg/ml in physiological saline (0.15 M sodium chloride).
The oligobenzimidazole derivative (2) according to the invention is dissolved in water to a concentration ranging from 40 to 160 μmol and mixed, volume for volume, with the DNA solution. The final saline concentration is 75 mmol.
HeLa cells are cultured under suitable conditions on 24-well microplates (2 cm^2/well) and are transfected while they are in the exponential growth phase and at 50-70% of confluence.
The cells are washed with twice 0.5 cm^3 of medium free of seric proteins and are regrown either in serum-free medium (transfection in the absence of serum) or in whole medium (transfection in the presence of serum). 0.05 cm^3 of cytofecting mixture (0.5 μg of DNA/well) are added to the cells (3 wells/DNA-vector condition). When the cells are transfected in the absence of serum, the growth medium is supplemented, 2 hours after the transfection, with a suitable amount of serum.
The transfecting efficacy is evaluated 48 hours after transfection by measuring the expression of luciferase according to the recommendations given for using the Promega kit (“Luciferase Assay System”). The toxicity of the cytofecting mixtures is estimated by measuring the protein concentrations in cell lysates.
The in vitro luciferase activity results relative to the proteins expressed in RLU/5 μl/10 s/μg of protein (written more simply as RLU/μg of protein, “RLU” meaning “relative light unit”) are given in the table below: […]

Structure (SMILES)	in vivo luciferase activity in mouse muscles ([1]; 0.2 nmol/μg of DNA, with electrotransfer)	in vivo luciferase activity in mouse muscles ([1]; 0.2 nmol/μg of DNA, without electrotransfer)	in vivo luciferase activity in mouse muscles ([1]; 0.5 nmol/μg of DNA, with electrotransfer)	in vivo luciferase activity in mouse muscles ([1]; 0.5 nmol/μg of DNA, without electrotransfer)	in vivo luciferase activity in mouse muscles ([1]; 1 nmol/μg of DNA, with electrotransfer)	in vivo luciferase activity in mouse muscles ([1]; 1 nmol/μg of DNA, without electrotransfer)	electrophoretic mobility of complexes with DNA on agarose gel [2]	in vitro luciferase activity ([3]; 4 nmol/μg of DNA, + serum)	in vitro luciferase activity ([3]; 4 nmol/μg of DNA, absence of serum)	in vitro luciferase activity ([3]; 8 nmol/μg of DNA, + serum)	in vitro luciferase activity ([3]; 8 nmol/μg of DNA, absence of serum)	in vitro luciferase activity ([3]; 10 nmol/μg of DNA, + serum)	in vitro luciferase activity ([3]; 10 nmol/μg of DNA, absence of serum)
CCCCCCCCCCCCCCCCCCNC(=O)Oc1ccc(-c2nc3ccc(-c4nc5ccc(N6CCN(C)CC6)cc5[nH]4)cc3[nH]2)cc1 [Derivative (1), 4-[6-(4-methyl-1-piperazinyl)-1H,3′H-[2,5′]bisbenzimidazol-2′-yl]-1-octadecylcarbamoyloxy phenyl]	1.14 E+07 RLU/10 μl/10 sec	3.45 E+04 RLU/10 μl/10 sec	2.19 E+07 RLU/10 μl/10 sec	1.67 E+04 RLU/10 μl/10 sec	1.82 E+07 RLU/10 μl/10 sec	1.06 E+04 RLU/10 μl/10 sec	same electrophoretic mobility properties as the naked DNA	–	–	–	–	–	–
CCCCCCCCCCCCNC(=O)Oc1ccc(-c2nc3ccc(-c4nc5ccc(N6CCN(C)CC6)cc5[nH]4)cc3[nH]2)cc1 [Derivative (2), 4-[6-(4-methyl-1-piperazinyl)-1H,3′H-[2,5′]bisbenzimidazol-2′-yl]-1-dodecylcarbamoyloxy phenyl]	–	–	–	–	–	–	same electrophoretic mobility properties as the naked DNA	9.8 E+02 RLU/μg of protein	1.3 E+03 RLU/μg of protein	4.6 E+02 RLU/μg of protein	1.7 E+03 RLU/μg of protein	1.1 E+02 RLU/μg of protein	1.7 E+03 RLU/μg of protein
CCCCCCCCCCCCCCN(CCCCCCCCCCCCCC)C(=O)CNC(=O)CNCCN(CCN)CCN [cationic lipid, reference compound]	–	–	–	–	–	–	varies with the amount of cationic lipid present with the DNA	–	–	–	–	–	–
